Reference: publication PMC9570088, “Phytochemicals with Chemopreventive Activity Obtained from the Thai Medicinal Plant Mammea siamensis (Miq.) T. Anders.: Isolation and Structure Determination of New Prenylcoumarins with Inhibitory Activity against Aromatase” (International Journal of Molecular Sciences, 2022)
“Also recorded” adds a separate entry of the source. Like-named read-outs stand apart in the source and are kept apart here.

Experiments:
[1] = molecular target: T1, human recombinant aromatase (Homo sapiens, UniProt P11511); test: Kinetic analysis of inhibitory activity against human recombinant aromatase using Lineweaver-Burk plots (testosterone substrate, estradiol EIA); format: biochemical; details: for Ki: testosterone 0.4–4 µM as substrate, secondary plot of Lineweaver–Burk, N = 3; for mode of inhibition of aromatase: Lineweaver–Burk plots
T1 construct: purchased BD Biosciences (Heidelberg, Germany)
T1 sequence (P11511 1-503): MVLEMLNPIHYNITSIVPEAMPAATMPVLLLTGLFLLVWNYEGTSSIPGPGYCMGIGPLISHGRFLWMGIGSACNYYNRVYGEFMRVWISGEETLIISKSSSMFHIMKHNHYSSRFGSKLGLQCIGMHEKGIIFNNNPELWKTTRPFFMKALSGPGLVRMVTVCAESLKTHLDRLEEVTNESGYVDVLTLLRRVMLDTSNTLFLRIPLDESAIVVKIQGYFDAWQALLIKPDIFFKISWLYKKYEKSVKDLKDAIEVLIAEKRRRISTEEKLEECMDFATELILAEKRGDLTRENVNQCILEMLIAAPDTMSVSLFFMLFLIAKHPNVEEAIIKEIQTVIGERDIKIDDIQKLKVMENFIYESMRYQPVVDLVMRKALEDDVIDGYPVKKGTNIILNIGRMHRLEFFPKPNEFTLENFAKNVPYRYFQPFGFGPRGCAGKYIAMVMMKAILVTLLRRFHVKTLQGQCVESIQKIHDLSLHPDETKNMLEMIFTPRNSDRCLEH
Text: In the assay system, we fixed the enzyme concentration, changed the substrate concentration, and obtained the kinetic parameters of the enzyme-catalyzed reaction using Lineweaver–Burk double reciprocal plot 1/[V] vs. 1/[S]. The inhibition constant Ki indicates the potency of an inhibitor and equals the concentration required to produce half-maximal inhibition. The Ki value was obtained from the intersection of the secondary plot with the x-axis (apparent Km/Vmax vs. inhibitor).
Experiments were performed using a previously described protocol, modified by using various concentrations of testosterone (0.4–4 µM) as substrates instead of DBF and the plate was heated at 37 °C for 15 min. After the reaction, the enzyme was inactivated by heating in a boiling water bath for 2 min. An estradiol EIA kit (Oxford Biomedical Research, Inc., Oxford, MI, USA) was used to develop an estradiol standard curve to determine the concentration of estradiol produced and to correlate the concentration of estradiol with the reaction velocity. The mode of inhibition was analyzed using the Lineweaver–Burk plot of the inverse of the reaction velocity of estradiol plotted on the vertical axis and the inverse of the final concentration of the substrate on the horizontal axis, with and without the test substance (Figure S27).

[2] = molecular target: T1, human recombinant aromatase; test: Inhibitory effects against human recombinant aromatase (DBF fluorescence assay); format: biochemical; details: for IC50: substrate DBF, mean, N = 3
Procedure: Dibenzylfluorescein (DBF) and human CYP19 + P450 reductase SUPERSOMES (human recombinant aromatase) were purchased from BD Biosciences (Heidelberg, Germany) and testosterone from Tokyo Chemical Industry Co., Ltd. (Tokyo, Japan). The other chemicals used in this study were purchased from Wako Pure Chemical Industries, Co., Ltd. (Osaka, Japan).
The experiments were performed according to a previously described method. Briefly, a test sample was dissolved in dimethyl sulfoxide (DMSO), and the solution was diluted with potassium phosphate buffer (50 mM, pH 7.4) containing MgCl2 (0.5 mM) to obtain the test sample solution (concentration of DMSO: 2%). An enzyme/substrate solution in the buffer (20 µL, 1.6 µM DBF, 8 nM human recombinant aromatase) and the test sample solution (20 µL) were mixed in a 96-well half-area black microplate (Greiner Bio-One, Frickenhausen, Germany) at 37 °C for 10 min. The enzymatic reaction was initiated by adding NADPH solution (40 µL, 500 µM) at 37 °C for 30 min. After 30 min of incubation, NaOH (30 µL, 2 mM) was added, and the reaction mixture was incubated at 37 °C for 2 h to induce fluorescent signals (final DMSO concentration, 0.5%; aromatase, 2 nM; and NADPH, 250 µM). Fluorescence was measured using a fluorescence microplate reader (SH-9000, CORONA […] Co., Ltd., Ibaraki, Japan) at an excitation wavelength of 435 nm and emission wavelength of 535 nm. Experiments were performed in triplicate, and the IC50 values were determined graphically.

[3] = molecular target: T1, human recombinant aromatase; design: method as in PMID 27373643; details: value marked as from earlier report; read-out: IC50 against human recombinant aromatase; cited from earlier work

## CCCC(=O)c1c(O)c2c(c3c([C@@H](O)CC)cc(=O)oc13)OC(C)(CCC=C(C)C)C=C2 (stereo partly drawn) [compound 23, Kayaessamin I]
[1]
  Ki: 14.7 µM
[2]
  IC50: 9.3 µM

## CCCc1cc(=O)oc2c3c(c(C(=O)C(C)CC)c(O)c12)OC(C)(C)C=C3 (stereo not drawn) [compound 31, Mammea B/AB cyclo D]
[1]
  mode of inhibition of aromatase: competitive inhibitory activity; also recorded: competitive inhibition; also recorded: competitive inhibitors
  Ki: 0.84 µM
[3]
  IC50: 3.1 µM

## CCCC(=O)c1c(O)c(CC=C(C)C)c(O)c2c(C(CC)OC(C)=O)cc(=O)oc12 (stereo not drawn) [compound 38, Mammea E/BC]
[1]
  Ki: 11.3 µM
[2]
  IC50: 23.2 µM

## CCCC(=O)c1c2c(c3oc(=O)cc(CCC)c3c1O)C=CC(C)(C)O2 [compound 32, Mammea B/AC cyclo D]
[3]
  IC50: 24.6 µM

## CC[C@H](OC(C)=O)c1cc(=O)oc2c(C(=O)CC(C)C)c(O)c(C/C=C(\C)CCC=C(C)C)c(O)c12 [compound 7, Mammeasin B]
[1]
  mode of inhibition of aromatase: competitive inhibition; also recorded: competitive inhibitors
  Ki: 1.3 µM
[3]
  IC50: 4.1 µM

## CC[C@H](O)c1cc(=O)oc2c3c(c(C(=O)CC(C)C)c(O)c12)OC(C)(C)C=C3 [compound 41, Deacetylammea E/AA cyclo D]
[2]
  IC50: 19.3 µM

## C=C(C)c1cc2c(o1)c(C(=O)CCC)c(O)c1c(-c3ccccc3)cc(=O)oc12 [compound 4, mammeasin N]
[1]
  mode of inhibition of aromatase: competitive inhibition; also recorded: competitive inhibitors
  Ki: 2.6 µM
[2]
  IC50: 12 µM

## CCC(C)C(=O)c1c(O)c(CC=C(C)C)c2oc(=O)cc([C@@H](O)CC)c2c1O (stereo partly drawn) [compound 21, Kayaessamin F]
[3]
  IC50: 19.7 µM

## CCC(C)C(=O)c1c(O)c(CC=C(C)C)c(O)c2c(C(CC)OC(C)=O)cc(=O)oc12 (stereo not drawn) [compound 37, Mammea E/BB]
[3]
  IC50: 18.6 µM

## C/C=C/c1cc(=O)oc2c(C(=O)CCC)c(O)c3c(c12)OC(C)(CCC=C(C)C)C=C3 (stereo not drawn) [compound 14, Mammeasin I]
[2]
  IC50: 21.3 µM

## CC(C)=CCC/C(C)=C/Cc1c(O)c(C(=O)C(C)C)c2oc(=O)cc3c2c1OC(C)C3 (stereo not drawn) [compound 8, Mammeasin C]
[1]
  mode of inhibition of aromatase: competitive inhibition; also recorded: competitive inhibitors
  Ki: 2.8 µM
[3]
  IC50: 2.7 µM

## CCCC(=O)c1c2c(c3oc(=O)cc(-c4ccccc4)c3c1O)CC(C(C)(C)O)O2 (stereo not drawn) [compound 40, Mammea A/AC cyclo F]
[2]
  IC50: 19.9 µM

## CCCC(=O)c1c(O)c(C/C=C(\C)CCC=C(C)C)c(O)c2c([C@H](CC)OC(C)=O)cc(=O)oc12 [compound 6, Mammeasin A]
[1]
  Ki: 5.1 µM
[3]
  IC50: 8.7 µM

## CCCC(=O)c1c2c(c3oc(=O)cc(-c4ccccc4)c3c1O)C=CC(C)(C)O2 [compound 30, Mammea A/AC cyclo D]
[3]
  IC50: 35 µM

## CCCC(=O)c1c(O)c2c(c3c(C(CC)OC(C)=O)cc(=O)oc13)OC(C)(C)C=C2 (stereo not drawn) [compound 33, Mammea E/BC cyclo D]
[1]
  mode of inhibition of aromatase: competitive inhibition; also recorded: competitive inhibitors
  Ki: 2.3 µM
[3]
  IC50: 11.5 µM

## CC[C@H](O)c1cc(=O)oc2c(C(=O)CC(C)C)c(O)c(C/C=C(\C)CCC=C(C)C)c(O)c12 [compound 18, Surangin D]
[3]
  IC50: 9.8 µM

## CCCC(=O)c1c(O)c(C/C=C(\C)CCC=C(C)C)c2c3c(cc(=O)oc13)CC(C)O2 (stereo not drawn) [compound 9, Mammeasin D]
[1]
  Ki: 4.3 µM
[3]
  IC50: 3.6 µM

## CCCC(=O)c1c(O)c2c(c3c(-c4ccccc4)cc(=O)oc13)OC(C)(C)C=C2 [compound 2, mammeasin L]
[2]
  IC50: 20.7 µM

## CCCC(=O)c1c(O)c2c(c3c(CCC)cc(=O)oc13)OC(C)(C)C=C2 [compound 1, mammeasin K]
[1]
  mode of inhibition of aromatase: competitively inhibit; also recorded: competitive inhibition; also recorded: competitive inhibitors
  Ki: 3.4 µM
[2]
  IC50: 7.6 µM

## CCC(C)C(=O)c1c(O)c(C/C=C(\C)CCC=C(C)C)c(O)c2c([C@@H](O)CC)cc(=O)oc12 (stereo partly drawn) [compound 17, Surangin C]
[1]
  mode of inhibition of aromatase: competitive inhibition; also recorded: competitive inhibitors
  Ki: 2.6 µM
[3]
  IC50: 8.8 µM

## CCCC(=O)c1c(O)c2c(c3c([C@@H](O)CC)cc(=O)oc13)OC(C)(C)C=C2 [compound 35, Deacetylammea E/BC cyclo D]
[3]
  IC50: 16.6 µM

## CCC(C)C(=O)c1c(O)c(C/C=C(\C)CCC=C(C)C)c(O)c2c([C@H](CC)OC(C)=O)cc(=O)oc12 (stereo partly drawn) [compound 16, Surangin B]
[1]
  mode of inhibition of aromatase: competitive inhibition; also recorded: competitive inhibitors
  Ki: 1.3 µM
[3]
  IC50: 9.8 µM

## CCCc1cc(=O)oc2c(C(=O)C(C)CC)c(O)c3c(c12)OC(C)(CCC=C(C)C)C=C3 (stereo not drawn) [compound 13, Mammeasin H]
[2]
  IC50: 17.9 µM

## CCCC(=O)c1c(O)c(CC=C(C)C)c2oc(=O)cc([C@@H](O)CC)c2c1O [compound 20, Kayaessamin E]
[3]
  IC50: 14.9 µM

## CCC(C)C(=O)c1c(O)c2c(c3c([C@@H](O)CC)cc(=O)oc13)OC(C)(C)C=C2 (stereo partly drawn) [compound 42, Deacetylammea E/BB cyclo D]
[2]
  IC50: 12.1 µM

## CC[C@H](O)c1cc(=O)oc2c(CC=C(C)C)c(O)c(C(=O)CC(C)C)c(O)c12 [compound 22, Kayaessamin G]
[3]
  IC50: 27.8 µM

## CCCc1cc(=O)oc2c3c(c(C(=O)C(C)CC)c(O)c12)OC(C)(CCC=C(C)C)C=C3 (stereo not drawn) [compound 15, Mammeasin J]
[2]
  IC50: 23.4 µM

## CCCC(=O)c1c(O)c(C/C=C(\C)CCC=C(C)C)c(O)c2c([C@@H](O)CC)cc(=O)oc12 [compound 19, Kayeassamin A]
[2]
  IC50: 10 µM

## CC(C)=CCc1c(O)c(C(=O)C(C)C)c(O)c2c(-c3ccccc3)cc(=O)oc12 [compound 27, Mammea A/AD]
[3]
  IC50: 11.3 µM

## CCCC(=O)c1c(O)c(CC=C(C)C)c2oc(=O)cc(-c3ccccc3)c2c1O [compound 26, Mammea A/AC]
[3]
  IC50: 13.7 µM

## CC(C)CC(=O)c1c2c(c3oc(=O)cc(-c4ccccc4)c3c1O)C=CC(C)(C)O2 [compound 28, Mammea A/AA cyclo D]
[1]
  mode of inhibition of aromatase: competitive inhibition; also recorded: competitive inhibitors
  Ki: 1.2 µM
[3]
  IC50: 7.2 µM

## CCCC(=O)c1c2c(c3oc(=O)cc(-c4ccccc4)c3c1O)C(OC)C(C(C)(C)O)O2 (stereo not drawn) [compound 3, mammeasin M]
[2]; 100 µM, value in parentheses
  inhibition at 100 µM: 43.4%
[2]
  IC50: > 100 µM

## CCC(OC(C)=O)c1cc(=O)oc2c(C(=O)C(C)C)c(O)c3c(c12)OC(C)(C)C=C3 (stereo not drawn) [compound 34, Mammea E/BD cyclo D]
[2]
  IC50: 21.1 µM

## CCCC(=O)c1c(O)c2c(c3c(CCC)cc(=O)oc13)OC(C)(CCC=C(C)C)C=C2 (stereo not drawn) [compound 12, Mammeasin G]
[2]
  IC50: 21.3 µM

## CCC(C)C(=O)c1c2c(c3oc(=O)cc(-c4ccccc4)c3c1O)C=CC(C)(C)O2 (stereo not drawn) [compound 29, Mammea A/AB cyclo D]
[3]
  IC50: 24.1 µM

## CCC(C)C(=O)c1c(O)c(CC=C(C)C)c2oc(=O)cc(-c3ccccc3)c2c1O (stereo not drawn) [compound 25, Mammea A/AB]
[1]
  Ki: 8.1 µM
[3]
  IC50: 8.6 µM

## CC(C)=CCc1c(O)c(C(=O)CC(C)C)c(O)c2c(-c3ccccc3)cc(=O)oc12 [compound 24, Mammea A/AA]
[1]
  Ki: 13.7 µM
[3]
  IC50: 6.9 µM

## CC[C@H](OC(C)=O)c1cc(=O)oc2c(C(=O)CC(C)C)c(O)c(CC=C(C)C)c(O)c12 [compound 36, Mammea E/BA]
[3]
  IC50: 16.6 µM
